From the OligoGym collection
Several values for one entry are separate records, joined by “and”; a condition that tells them apart may be missing. Identical values can stand only once. After the bases stand the sugars from the 5' end (letter, count) and the backbone: PS all phosphorothioate, else s phosphorothioate and o phosphodiester by linkage. Methylation of C is not given here. e = 2'-O-(2-methoxyethyl) (MOE); k = constrained ethyl (cEt); d = 2'-deoxy (DNA)

Target: IRF4
Conditions: ASO

Row | Sequence | target mRNA inhibition (MM.1R, 1 µM) | target mRNA inhibition (SK-MEL-28, 4 µM) | other results
1 | CGGACACGCCCGACCC (sugars k3 d10 k3, PS) | 7% |  | 
2 | GCGAGTTGGCACAATT (sugars k3 d10 k3, PS) | 27% and 37% |  | 
3 | TGATAAGGCACTACTT (sugars k3 d10 k3, PS) |  | 35% | 
4 | GATTATATACTGGTTG (sugars kkddddddddddkeke, PS) | 45% |  | 
5 | TAACTTCTCCTGTGCA (sugars k3 d10 k3, PS) | 15% |  | 
6 | GCGACTAACTCTCCTG (sugars k3 d10 k3, PS) |  | 70% | 
7 | CTGTATCATGCATACC (sugars k3 d10 k3, PS) |  | 61% | 
8 | GACCTAACTAAATGTC (sugars k3 d10 k3, PS) |  | -18% | 
9 | TTATATACTGGTTGGT (sugars kdddddddddkekeke, PS) | 20% |  | 
10 | TGGAAACCAGCCCTTG (sugars k3 d10 k3, PS) |  | 48% | 
11 | CCTCAGTTTGTGAAGC (sugars kkdddddddddkdkdk, PS) | 8% |  | 
12 | CACTCTTACTCCGCTG (sugars k3 d10 k3, PS) | -12% |  | 
13 | GTGGGTCCCAAGATCG (sugars k3 d10 k3, PS) |  | 40% | 
14 | CACATCAATGTTTTAG (sugars kkdddddddddekeke, PS) | 28% and 27% |  | 
15 | CAGGAAACCGCTGGCA (sugars k3 d10 k3, PS) |  | 74% | 
16 | TGTAAATGAGTCGGTC (sugars k3 d10 k3, PS) |  | 69% | 
17 | ATGAGAACTTTGATGT (sugars k3 d10 k3, PS) |  | 15% | 
18 | AGCTTCTTTGAAGTGC (sugars k3 d10 k3, PS) |  | 62% | 
19 | TACATGGCAGTGGAGC (sugars k3 d10 k3, PS) |  | 71% | 
20 | GAGGAGGAGGACTTAT (sugars k3 d10 k3, PS) |  | 51% | 
21 | CTCCAACCCTAGATAA (sugars k3 d10 k3, PS) |  | 2% | 
22 | GACCAATTTATGCCAT (sugars k3 d10 k3, PS) |  | 38% | 
23 | AGTCAAGCCCCAAGCC (sugars k3 d10 k3, PS) |  | 13% | 
24 | CTAACAGATAACGAGG (sugars k3 d10 k3, PS) |  | 23% | 
25 | CTTCCCTGAGAAATGG (sugars k4 d8 k4, PS) |  | 36% | 

Row | Sequence | target mRNA inhibition (MM.1R, 1 µM) | target mRNA inhibition (SK-MEL-28, 4 µM) | other results
26 | GCATCTAAGGCAAGCT (sugars k3 d10 k3, PS) |  | 34% | 
27 | GCTCACAGATTAATAG (sugars k3 d10 k3, PS) |  | 16% | 
28 | GCATTTTCCAGAAAAT (sugars k3 d10 k3, PS) |  | 64% | target mRNA inhibition (SK-MEL-28, 0.185 µM): 13%; target mRNA inhibition (SK-MEL-28, 5 µM): 74%; target mRNA inhibition (SK-MEL-28, 15 µM): 89%
29 | GACTTATTTGTGGCTC (sugars k3 d10 k3, PS) | 20% |  | 
30 | ACACAGTCTGCTGCCC (sugars k3 d10 k3, PS) |  | 51% | 
31 | GGCCACCGCACGCAAG (sugars k3 d10 k3, PS) | -24% |  | 
32 | GGAAGTTTACACTGGA (sugars k2 d9 e3 k2, PS) | 47% |  | 
33 | GGCCAATGATTTTGTT (sugars k3 d10 k3, PS) |  | 6% | 
34 | AAAGTCCCATCGAATC (sugars k3 d10 k3, PS) |  | 13% | 
35 | CTCCTACCCGCCTGCT (sugars k3 d10 k3, PS) |  | 15% | 
36 | TGGTTGGCTGGTCTTT (sugars kddddddddddkekek, PS) | 9% |  | 
37 | CTTTGGGCACCAAAAG (sugars k3 d10 k3, PS) | -33% |  | 
38 | GAAAGAGCTGGTAGGT (sugars k3 d10 k3, PS) |  | 0% | 
39 | TACCGATGCTTCAAGA (sugars k3 d10 k3, PS) | -3% |  | 
40 | AAATACGACAACTTTC (sugars k3 d10 k3, PS) |  | 21% | 
41 | AGCCAGTGCCAGTTCC (sugars k3 d10 k3, PS) |  | 39% | 
42 | TCCAGGTGGCTCAGCA (sugars k4 d8 k4, PS) |  | 34% | 
43 | TGTCGATGCCTTCTCG (sugars k3 d10 k3, PS) |  | 28% | 
44 | CCTGGGACTCAGGTGG (sugars k4 d8 k4, PS) |  | 7% | 
45 | AGTTGTAAATGAGTCG (sugars kddddddddddkekek, PS) | 44% |  | 
46 | AACTCATAGGTGTACA (sugars k3 d10 k3, PS) |  | 61% | 
47 | AGGTAATCTGTATAGT (sugars k3 d10 k3, PS) |  | 62% | 
48 | TACTGTTACCGATGCT (sugars k3 d10 k3, PS) | 37% and 18% |  | target mRNA inhibition (MM.1R, 0.0625 µM): -6%; target mRNA inhibition (MM.1R, 0.25 µM): -4%; target mRNA inhibition (MM.1R, 4 µM): 38%
49 | ATGAACGGAAGTTTAC (sugars k3 d10 k3, PS) |  | 54% | 
50 | GAAGCATTTTATCATC (sugars e1 k2 d9 k2 e2, PS) | 1% |  | 

Row | Sequence | target mRNA inhibition (MM.1R, 1 µM) | target mRNA inhibition (SK-MEL-28, 4 µM) | other results
51 | GTATAGTTCTCAACCA (sugars k3 d10 k3, PS) |  | 47% | 
52 | AGCTCTAGACAGAGGC (sugars k3 d10 k3, PS) |  | 35% | 
53 | AAGTTCATGTAAAGTC (sugars kkddddddddddkeke, PS) | 28% and 20% |  | 
54 | CGTAACTCAGGCACCA (sugars k3 d10 k3, PS) |  | 30% | 
55 | TACATTCACACTGCCG (sugars k3 d10 k3, PS) |  | 50% and 58% | target mRNA inhibition (MM.1R, 0.074 µM): -3%; target mRNA inhibition (MM.1R, 0.222 µM): 2%; target mRNA inhibition (MM.1R, 0.666 µM): 15%; target mRNA inhibition (MM.1R, 2 µM): 9%
56 | ACAGTGACTTGCATCC (sugars k3 d10 k3, PS) | 34% |  | 
57 | GTAGTCCTGCTTGCCC (sugars k4 d8 k4, PS) |  | 11% | 
58 | GCTGCTCATTTCACTG (sugars k3 d10 k3, PS) |  | 41% | 
59 | TGGCCCTTCTCTCACG (sugars k3 d10 k3, PS) |  | 11% | 
60 | GTTAAAGCAGCATAAT (sugars k3 d10 k3, PS) |  | 27% | 
61 | TCTGGATGAGCTTACA (sugars k3 d10 k3, PS) | 14% |  | 
62 | GAGTGAGATGCGGAGG (sugars k3 d10 k3, PS) |  |  | target mRNA inhibition (MM.1R, 0.0625 µM): 6%; target mRNA inhibition (MM.1R, 0.25 µM): 0%; target mRNA inhibition (MM.1R, 4 µM): 67%
63 | GGTATTTATAACCGGT (sugars k3 d10 k3, PS) | 10% |  | 
64 | ATAACCGGTAGAGTGA (sugars k3 d10 k3, PS) |  | 50% | 
65 | ATAGCTGAGCTGATCA (sugars k3 d10 k3, PS) | 30% |  | 
66 | ATTATATACTGGTTGG (sugars kddddddddddkekek, PS) | 22% |  | 
67 | CTGGCCTGAAGCTTAG (sugars k3 d10 k3, PS) | 25% |  | 
68 | TACTAGGTGCTTGTTG (sugars k3 d10 k3, PS) |  | 49% | 
69 | AGCATCACTATTAAGA (sugars k3 d10 k3, PS) | 10% | 72% | target mRNA inhibition (MM.1R, 0.0625 µM): -5%; target mRNA inhibition (MM.1R, 0.074 µM): 2%; target mRNA inhibition (MM.1R, 0.222 µM): 10%; target mRNA inhibition (MM.1R, 0.25 µM): 1%; target mRNA inhibition (MM.1R, 0.666 µM): 10%; target mRNA inhibition (MM.1R, 2 µM): 11%; target mRNA inhibition (MM.1R, 4 µM): 26%
70 | GGCGACTGCTGAAAAC (sugars k3 d10 k3, PS) | -10% |  | 
71 | CCTATAACTTCTCCTG (sugars k3 d10 k3, PS) | -7% |  | 
72 | CGGTCAGCAGAACCAC (sugars k3 d10 k3, PS) | -8% |  | 
73 | CATGGGACATTGGTAC (sugars k3 d10 k3, PS) | 18% |  | 
74 | GTCCAGAGTCTTCAGA (sugars k3 d10 k3, PS) |  | 6% | 
75 | TGTATAGTTCTCAACC (sugars k3 d10 k3, PS) |  | 43% | 

Row | Sequence | target mRNA inhibition (MM.1R, 1 µM) | target mRNA inhibition (SK-MEL-28, 4 µM) | other results
76 | CCCACATGTCCCGTGG (sugars k3 d10 k3, PS) |  | 5% | 
77 | CCCCAAAATACTTTGC (sugars k3 d10 k3, PS) |  | 100% | 
78 | TGGGATTATATACTGG (sugars kkdddddddddkdkdk, PS) | 25% |  | 
79 | ACACACATTAAAGGGT (sugars k3 d10 k3, PS) |  | 43% | 
80 | ATGGCTAAACCTGGCA (sugars k3 d10 k3, PS) | 22% |  | 
81 | ATAGAATTAGGTGCTT (sugars k3 d10 k3, PS) | 25% | 64% | target mRNA inhibition (MM.1R, 0.0625 µM): -5%; target mRNA inhibition (MM.1R, 0.074 µM): -1%; target mRNA inhibition (MM.1R, 0.222 µM): 33%; target mRNA inhibition (MM.1R, 0.25 µM): 6%; target mRNA inhibition (MM.1R, 0.666 µM): 11%; target mRNA inhibition (MM.1R, 2 µM): 8%; target mRNA inhibition (MM.1R, 4 µM): 56%
82 | GAGGAAGCCGTTCCTT (sugars k3 d10 k3, PS) |  | 51% | 
83 | GCACTGGCATCGAGAC (sugars k3 d10 k3, PS) |  | 57% | 
84 | TTAAACAGCACTCAGA (sugars k3 d10 k3, PS) |  | 33% | 
85 | TCCACTACCATATTGG (sugars k3 d10 k3, PS) | -29% |  | 
86 | CTGCATGAAAGTGTGT (sugars k3 d10 k3, PS) |  | 56% | 
87 | ACTACTATTGTGGAAA (sugars k3 d10 k3, PS) |  | 18% | 
88 | GAAGTTTACTAACTGG (sugars k3 d10 k3, PS) |  | 57% | 
89 | GAGCAGTAAACGCAAG (sugars k3 d10 k3, PS) |  | 54% | 
90 | AGGCACATCAATGTTT (sugars kdddddddddkekeke, PS) | -9% and 3% |  | 
91 | TATCCTGTAGTATGAG (sugars k3 d10 k3, PS) | 42% |  | 
92 | AACAGTAAGAGGGCAG (sugars k3 d10 k3, PS) |  | 63% | 
93 | ATAGTTAAGTACTTGG (sugars k3 d10 k3, PS) |  | 48% | 
94 | GGAGATATTAATTACT (sugars k3 d10 k3, PS) |  | 50% | 
95 | AAGTACTTGGACAGAA (sugars k3 d10 k3, PS) |  | 54% | 
96 | GTGGAACTCATAGGTG (sugars k3 d10 k3, PS) |  | 53% | 
97 | CATCCGAAAAGACTGG (sugars k3 d10 k3, PS) | 14% |  | 
98 | TGCCTCTGTTAGGTGA (sugars k3 d10 k3, PS) |  | 34% | 
99 | ACAGTGACTTGCATCC (sugars kddddddddddkekek, PS) | -5% |  | 
